Publication PMC5766898, “Eel Kisspeptins: Identification, Functional Activity, and Inhibition on both Pituitary LH and GnRH Receptor Expression” (Frontiers in Endocrinology, 2018)
Entries after “also recorded” stand apart in the source; their conditions may differ. Like-named read-outs stand apart in the source and are kept apart here. Ends that are not written are not given here.

Key:
human KissR-1 [1] = system: human KissR-1; set-up: method as in PMID 26047834; details: CHO cells; cited from earlier work
KissR-2 = details: cited from earlier work
Excerpt: (§1) For clarity, the nomenclature of Pasquier et al ([19], [24]) for KissR will be used in the following paragraphs. In teleost models with two receptors, various studies have shown differential affinities of Kiss peptides toward homologous receptors.

LH release = details: cited from earlier work
Excerpt: (§2) This paradoxical inhibitory effect contrasts with the general action of kisspeptin as an activator of puberty and reproduction, mostly at the brain level ([70]), but also directly on the pituitary [for reviews see Ref. ([71], [72])]. […] In contrast, in other studied teleosts, the action of kisspeptin is generally ...

lh expression = details: cited from earlier work
Excerpt: as §2

KissR-3 = details: cited from earlier work
Excerpt: as §1

FSH release = details: sea bass; cited from earlier work
Excerpt: as §2

[2] = system: lhβ expression by eel pituitary cells; details: eel pituitary cells in primary culture; cited from earlier work
Excerpt: In the eel, three Kiss receptor genes have been characterized, i.e., KissR-1, KissR-2, and KissR-3 ([19], [22]–[24]). Their expressions mainly occur in the brain, pituitary, and gonads ([19]).

[3] = system: fshβ expression by eel pituitary cells; details: eel pituitary cells in primary culture; cited from earlier work
human KissR-1 [4] = system: human KissR-1; set-up: method as in PMID 19164475; details: CV-1 cells; cited from earlier work
[5] = system: LH release by pituitary cells; details: cited from earlier work
Excerpt: as §2

rat KissR-1 = molecular target: T1, rat KissR-1 (Rattus norvegicus, UniProt Q924U1); test: [Ca^2+]i response (Fluo-4 AM, FlexStation) in rat KissR-1-transfected CHO-K1 cells; format: cell-based; details: rat KissR-1 CHO-K1 cells, peak Fluo-4 fluorescence, 10^−12 to 10^−6 M, 37°C, four-parameter logistic, mean ± SEM from two independent experiments; for Emax: baseline normalized to 100%, 180 s recording
T1 construct: expressed in transfected cells
Experimental: CHO-K1 cells were cultured to semiconfluence in 12-well plates using Ham’s F12 medium supplemented with 10% fetal bovine serum and 1% antibiotic–antimycotic solution. Cells were transfected with different quantities of the recombinant plasmid, ranging from 3 to 5 µg, using Lipofectamine 2000 (Invitrogen, Cergy Pontoise, France) as previously described ([30]). Twenty-four hours after transfection, media were replaced by fresh F12 medium containing 1 mg/ml G418 (Geneticin; Life Technologies, Inc.). One week later, surviving cells were detached, diluted, and plated on 96-well plates at 0.7 cells/well. Monoclonal cell lines expressing rat KissR-1 (CHO-K1-rKissR-1) were followed daily by contrast phase microscopy. Seven independent monoclonal stable cell lines were obtained after a 3-week period of selection. By using qPCR, two cell lines were selected based on their expression levels being closest to physiological levels among all cell lines.
To compare the KissR-1 agonistic activities of eel Kp1(10), Kp2(10), Kp1(15), and Kp2(12), the level of [Ca^2+]i after stimulation of CHO-K1 cells stably expressing KissR-1 by these peptides was monitored by spectrofluorometry as previously described ([30], [31]) with slight modifications. Briefly, after 24 h in culture, cells were incubated for 1 h in a humidified incubator (37°C, 5% CO2) with 2 µM Fluo-4 acetoxymethyl ester (AM) calcium dye (Life Technologies, Saint Aubin, France) in Hank’s Buffer Saline Solution (HBSS; Life Technologies) buffered with 5 mM HEPES and supplemented with 2.5 mM probenecid (Sigma-Aldrich, Saint-Quentin Fallavier, France). Cells were washed twice with HBSS/HEPES/probenecid to remove Fluo-4 AM from the incubation medium and incubated in 150 µl of the same medium at 37°C for 15 min. Fluorescence was recorded using a Flexstation 3 fluorescence plate reader system (Molecular Devices, Saint-Grégoire, France) during 180 s with an excitation wavelength of 480 nm, an emission wavelength of 525 nm, and a cutoff filter of 515 nm. After 15 s recording in basal conditions, 50 µl of graded concentration (10^−12 to 10^−6 M) of different peptides (four-fold final concentration) was added to the incubation medium with the built-in eight-channel pipettor at a rate of 62 µl/s to assess their agonistic activity. After subtraction of mean fluorescence background from control wells without Fluo-4 AM, baseline was normalized to 100%, and fluorescence peak values were determined for each concentration of peptide. Potency (EC50) and efficacy (Emax) (Table 3) were determined with the Prism 6.0 software (GraphPad Software In., La Jolla, CA, USA) using a four-parameter logistic equation to fit peak fluorescence data.

type II gnrh-r = details: repeated injections, juvenile female Japanese quail; cited from earlier work
Excerpt: (§3) This receptor is the one increased during experimental maturation in both female and male eels ([25]). To the best of our knowledge, only a single other study investigated the effect of kisspeptin on GnRH receptor in teleost. In female striped bass at dummy run phase (ovarian development is initiated but not completed), chronic administration in vivo of both Kp1(15) and Kp2(12) induces a decrease ...

mouse KissR-1 = system: mouse KissR-1; set-up: method as in PMID 26047834; details: CHO cells; cited from earlier work
LH secretion = details: im injection, prepubertal and adult sea bass; Kp2(10) versus Kp1(10); cited from earlier work
Excerpt: as §2

FSH gene transcription = details: striped bass; cited from earlier work
Excerpt: as §2

FSH peptide secretion = details: striped bass; cited from earlier work
Excerpt: as §2

plasma LH levels = details: striped bass, im, cited from earlier work
Excerpt: as §2

pituitary gnrh-r mRNAs = details: female striped bass at dummy run phase, chronic administration in vivo; cited from earlier work
Excerpt: as §3

[6] = system: expression of LH by pituitary cells; details: goldfish pituitary cells, mixed sexes at late stages of sexual regression; cited from earlier work
Excerpt: as §2

human KissR-1 [7] = system: human KissR-1; set-up: method as in PMID 18509165; details: COS-7 cells; cited from earlier work
[8] = pituitary cells from mature male sea bass
[9] = zebrafish, COS-7, CHO-K1, and HEK293 cells
[10] = pituitary cells from sexually mature female goldfish
[11] = striped bass, COS-7 cells, Kp1(15) versus Kp2(12)

T1 sequence (Q924U1 whole entry): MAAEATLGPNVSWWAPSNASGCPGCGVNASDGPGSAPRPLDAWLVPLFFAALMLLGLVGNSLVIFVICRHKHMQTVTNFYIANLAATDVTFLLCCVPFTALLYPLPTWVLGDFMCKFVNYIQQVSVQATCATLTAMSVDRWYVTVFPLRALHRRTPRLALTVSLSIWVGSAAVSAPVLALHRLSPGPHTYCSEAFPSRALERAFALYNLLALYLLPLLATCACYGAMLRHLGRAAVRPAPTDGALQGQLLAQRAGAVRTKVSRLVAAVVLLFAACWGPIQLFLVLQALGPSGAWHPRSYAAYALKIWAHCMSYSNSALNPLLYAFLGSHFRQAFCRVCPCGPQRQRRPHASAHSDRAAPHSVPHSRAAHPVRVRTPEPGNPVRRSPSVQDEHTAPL

QDVSSYNLNSFGLRY [sea bass Kp1(15), sea bass Kiss peptide]
activation of human KissR-1 (human KissR-1 [1]): can efficiently activate human KissR-1 | preference for KissR-2 (KissR-2; sea bass, CHO cells): preference for KissR-2 | effect on LH release (LH release; [8]): no effect | effect on lh expression (lh expression; [8]): no effect

HQDMSSYNFNSFGLRY [chub mackerel Kp1(16), chub mackerel predicted mature peptide]
activity on KissR-3 (KissR-3; chub mackerel, Kp1(16) versus Kp1(15)): more active than the shorter Kp1(15)

SKFNFNPFGLRF [sea bass Kp2(12), sea bass Kiss peptide]
activation of human KissR-1 (human KissR-1 [1]): can efficiently activate human KissR-1 | potency for activating KissR-3 (KissR-3; sea bass, CHO cells): higher potency for activating KissR-3 | in vitro FSH release (FSH release): can induce in vitro FSH release | effect on LH release (LH release; [8]): induces both lh expression and LH release | effect on lh expression (lh expression; [8]): induces both lh expression and LH release

FNYNPFGLRF [zebrafish Kp2(10), heterologous kisspeptin]
effect on lhβ expression, heterologous kisspeptins [2]: can inhibit lhβ expression; also recorded: specific in vitro inhibitory effect | effect on fshβ expression, heterologous kisspeptins [3]: no effect on fshβ | activation of human KissR-1 (human KissR-1 [4]): highly efficient | activation of KissR-2 (KissR-2; [9]): activated by both Kp1(10) and Kp2(10)

FNYNPFGLRF [goldfish Kp2(10), homologous goldfish Kp2(10)]
effect on LH release [5, 10]: inactive on LH release

ENFSSYNWNSFGLRY-NH2 [Eel Kp1(15)]
Emax (rat KissR-1): 277 ± 5.3% | EC50 (rat KissR-1): 11.8 ± 2 nM

FNRNPFGLRF-NH2 [Eel Kp2(10)]
Emax (rat KissR-1): 260 ± 9.5% | EC50 (rat KissR-1): 56.6 ± 27.7 nM

YNWNSFGLRF [human/lamprey Kp1(10), heterologous kisspeptin]
effect on lhβ expression, heterologous kisspeptins [2]: can inhibit lhβ expression; also recorded: specific in vitro inhibitory effect | effect on fshβ expression, heterologous kisspeptins [3]: no effect on fshβ | effect on pituitary expression of type II gnrh-r (type II gnrh-r): upregulated pituitary expression of type II

QNVAYYNLNSFGLRY [zebrafish Kp1(15), heterologous kisspeptin]
effect on lhβ expression, heterologous kisspeptins [2]: can inhibit lhβ expression; also recorded: specific in vitro inhibitory effect | effect on fshβ expression, heterologous kisspeptins [3]: no effect on fshβ | activation of human KissR-1 (human KissR-1 [4]): highly efficient | preference for KissR-2 (KissR-2; zebrafish, CV-1 cells): preference for KissR-2

FNFNPFGLRF [sea bass Kp2(10), sea bass Kiss peptide]
activation of human KissR-1 (human KissR-1 [1]): can efficiently activate human KissR-1 | activation of mouse KissR-1 (mouse KissR-1): not able to induce any activation | potency in inducing LH secretion (LH secretion): significantly more potent than Kp1(10) in inducing LH secretion

YNLNSFGLRY [sea bass Kp1(10), sea bass Kiss peptide]
activation of human KissR-1 (human KissR-1 [1]): can efficiently activate human KissR-1

QDVSSYNLNSFGLRY [striped bass Kp1(15), striped bass Kiss peptide]
activation of KissR-3 (KissR-3; [11]): activate KissR-3 with the same potency | effect on FSH gene transcription (FSH gene transcription): stimulate FSH | effect on FSH peptide secretion (FSH peptide secretion): stimulate FSH | effect on lh expression (lh expression; striped bass, in vitro): inhibitory effect on lh expression | effect on plasma LH levels (plasma LH levels; gonadal recrudescence): could increase LH levels at gonadal recrudescence | effect on plasma LH levels (plasma LH levels; overall): induces plasma LH levels in a stage-dependent manner | effect on plasma LH levels (plasma LH levels; pubertal stage): no effect on LH at pubertal stage | effect on pituitary gnrh-r mRNAs (pituitary gnrh-r mRNAs): induces a decrease of pituitary gnrh-r mRNAs

SKFNFNPFGLRF [striped bass Kp2(12), striped bass Kiss peptide]
activation of KissR-2 (KissR-2; striped bass, COS-7 cells, Kp2(12) versus Kp1(15)): more efficiently activated | activation of KissR-3 (KissR-3; [11]): activate KissR-3 with the same potency | effect on FSH gene transcription (FSH gene transcription): stimulate FSH | effect on FSH peptide secretion (FSH peptide secretion): stimulate FSH | effect on LH release (LH release; striped bass, in vitro): stimulated LH release | effect on plasma LH levels (plasma LH levels; gonadal recrudescence): could increase LH levels at gonadal recrudescence | effect on plasma LH levels (plasma LH levels; overall): induces plasma LH levels in a stage-dependent manner | effect on pituitary gnrh-r mRNAs (pituitary gnrh-r mRNAs): induces a decrease of pituitary gnrh-r mRNAs

human Kp1(14): heterologous kisspeptin (DLPNYNWNSFGLRF; ends and bridges not checked; UniProt Q15726 108-121, looked up)
effect on lhβ expression, heterologous kisspeptins [2]: can inhibit lhβ expression; also recorded: specific in vitro inhibitory effect | effect on fshβ expression, heterologous kisspeptins [3]: no effect on fshβ

SKFNRNPFGLRF-NH2 [Eel Kp2(12)]
Emax (rat KissR-1): 256 ± 6.7% | EC50 (rat KissR-1): 135 ± 18.9 nM

YNWNSFGLRY-NH2 [Eel Kp1(10)]
Emax (rat KissR-1): 236 ± 8.4% | EC50 (rat KissR-1): 8.5 ± 4.5 nM

SKFNYNPFGLRF [zebrafish Kp2(12), zebrafish Kiss peptide]
activation of human KissR-1 (human KissR-1 [4]): highly efficient | potency for activating KissR-3 (KissR-3; zebrafish, CV-1 cells): higher potency for activating KissR-3

YNLNSFGLRY [goldfish Kp1(10), homologous goldfish Kp1(10)]
effect on LH release ([5]; goldfish pituitary cells, mixed sexes at late stages of sexual regression): increases the release and expression of LH | effect on LH release [5, 10]: inactive on LH release | effect on LH expression [6]: increases the release and expression of LH

YNLNSFGLRY [zebrafish Kp1(10), heterologous kisspeptin]
effect on lhβ expression, heterologous kisspeptins [2]: can inhibit lhβ expression; also recorded: specific in vitro inhibitory effect | effect on fshβ expression, heterologous kisspeptins [3]: no effect on fshβ | activation of human KissR-1 (human KissR-1 [7]): highly efficient | activation of KissR-2 (KissR-2; [9]): activated by both Kp1(10) and Kp2(10) | activation of KissR-3 (KissR-3; [9]): preferentially activated by Kp1(10)
